Measurements as given in ChEMBL document CHEMBL6153110, “Peptide Double-Stapling and Arginine N-Glycosylation Triggered the Development of Therapeutic Antimicrobial Peptides Capable of Killing Drug-Resistant Bacteria in Mice” (J Med Chem, 2025).
Converted amounts (≈) assume the structure as drawn. Starred links: 1 amine or outer side, 2 acyl side, 3 side chain; linkers in the order of their positions; H or OH if unused. Positions of bridges follow the written chain, without caps; N, C: chain ends. Non-standard residues stand in square brackets, D forms with d. Residues, ends and D or L forms follow the SMILES beside them. X1 = N=C(NCCC[C@H](N[*:1])C(=O)[*:2])N[C@@H]1O[C@H](CO)[C@@H](O[C@H]2O[C@H](CO)[C@@H](O[C@H]3O[C@H](CO)[C@@H](O)[C@H](O)[C@H]3O)[C@H](O)[C@H]2O)[C@H](O)[C@H]1O; Arg(Nω-βLac) = N=C(NCCC[C@H](N)C(=O)O)N[C@@H]1O[C@H](CO)[C@@H](O[C@@H]2O[C@H](CO)[C@H](O)[C@H](O)[C@H]2O)[C@H](O)[C@H]1O; S5 = C=CCCC[C@](C)(N)C(=O)O

What was measured:
[1] = system: Pseudomonas aeruginosa; assay: Antimicrobial activity against Pseudomonas aeruginosa ATCC 27853 assessed as growth inhibition measured after 8 hrs incubation by standard broth dilution assay; assay type: functional
[2] = system: Klebsiella pneumoniae; assay: Antimicrobial activity against Klebsiella pneumoniae ATCC 13883 assessed as growth inhibition measured after 8 hrs incubation by standard broth dilution assay; assay type: functional
[3] = system: Streptococcus pneumoniae; assay: Antimicrobial activity against Streptococcus pneumoniae ATCC 49619 assessed as growth inhibition measured after 8 hrs incubation by standard broth dilution assay; assay type: functional
[4] = Hemolytic activity in BALB/c mouse red blood cells assessed as hemolysis incubated for 1 hrs; assay type: toxicity, cell-based, Erythrocyte; details: read-out: HD50
[5] = system: Staphylococcus aureus; assay: Antimicrobial activity against methicillin-resistant Staphylococcus aureus ATCC 43300 assessed as growth inhibition measured after 8 hrs incubation by standard broth dilution assay; assay type: functional

| Structure (SMILES) | MIC [1] | MIC [2] | MIC [3] | HC50 at 1 h [4] | MIC [5] |
| --- | --- | --- | --- | --- | --- |
| CC(=O)N[C@@H](CCCCN)C(=O)N[C@@H](CCCCN)C(=O)N[C@@H](CCCNC(=N)N)C(=O)N[C@H](C(=O)N[C@@]1(C)CCC/C=C\CCC[C@@](C)(C(=O)N[C@@H](CCCCN)C(=O)N[C@@H](CC(C)C)C(=O)N[C@@H](CC(C)C)C(=O)N[C@@H](CCCCN)C(=O)N[C@@]2(C)CCC/C=C\CCC[C@@](C)(C(=O)N[C@@H](CC(C)C)C(=O)N[C@@H](CCCCN)C(=O)N[C@@H](CCCCN)C(=O)N3CCC[C@H]3C(=O)N[C@H](C(=O)N[C@@H](CCCNC(=N)N)C(N)=O)C(C)C)NC(=O)[C@H](CCCNC(=N)N)NC(=O)[C@H](Cc3c[nH]c4ccccc34)NC(=O)[C@H](Cc3ccc(O)cc3)NC2=O)NC(=O)[C@H](C(C)C)NC(=O)[C@H](CCCNC(=N)N)NC(=O)[C@H](CCCCN)NC1=O)C(C)C (Ac-KKRV[S5]KRV[S5]KLLK[S5]YWR[S5]LKKPVR-NH2; staple (Z) 5-9, 14-18) | 5 µg/mL (≈ 1.58 µM) | 4.9 µg/mL (≈ 1.55 µM) | 4.7 µg/mL (≈ 1.48 µM) | 13.2 µg/mL | 4.9 µg/mL (≈ 1.55 µM) |
| CC(=O)N[C@@H](CCCCN)C(=O)N[C@@H](CCCCN)C(=O)N[C@@H](CCCNC(=N)N)C(=O)N[C@@]1(C)CCC/C=C\CCC[C@@](C)(C(=O)N[C@@H](Cc2ccccc2)C(=O)N[C@@H](CCCCN)C(=O)N[C@@H](CC(C)C)C(=O)N[C@@H](CC(C)C)C(=O)N[C@@H](CCCCN)C(=O)N[C@@]2(C)CCC/C=C\CCC[C@@](C)(C(=O)N[C@@H](CC(C)C)C(=O)N[C@@H](CCCCN)C(=O)N[C@@H](CCCCN)C(=O)N3CCC[C@H]3C(=O)N[C@H](C(=O)N[C@@H](CCCNC(=N)N)C(N)=O)C(C)C)NC(=O)[C@H](CCCNC(=N)N)NC(=O)[C@H](Cc3c[nH]c4ccccc34)NC(=O)[C@H](Cc3ccc(O)cc3)NC2=O)NC(=O)[C@H](CCCNC(=N)N)NC(=O)[C@H](CCCCN)NC(=O)[C@H](Cc2c[nH]c3ccccc23)NC1=O (Ac-KKR[S5]WKR[S5]FKLLK[S5]YWR[S5]LKKPVR-NH2; staple (Z) 4-8, 14-18) | 5 µg/mL (≈ 1.52 µM) | 4.9 µg/mL (≈ 1.48 µM) | 4.7 µg/mL (≈ 1.42 µM) | 10.5 µg/mL | 4.9 µg/mL (≈ 1.48 µM) |
| CC(=O)N[C@@H](CC(C)C)C(=O)N[C@@H](CCCCN)C(=O)N[C@@H](CCCNC(=N)N)C(=O)N[C@@H](CCCCN)C(=O)N[C@@H](Cc1c[nH]c2ccccc12)C(=O)N[C@@H](CCCCN)C(=O)N[C@@H](CCCNC(=N)N)C(=O)N[C@H](C(=O)N[C@@H](Cc1ccccc1)C(=O)N[C@@H](CCCCN)C(=O)N[C@@H](CC(C)C)C(=O)N[C@@H](CC(C)C)C(=O)N[C@@H](CCCCN)C(=O)N[C@@]1(C)CCC/C=C\CCC[C@@](C)(C(=O)N[C@@H](CC(C)C)C(=O)N[C@@H](CCCCN)C(=O)N[C@@H](CCCCN)C(=O)N2CCC[C@H]2C(=O)N[C@H](C(=O)N[C@@H](CCCNC(=N)N)C(N)=O)C(C)C)NC(=O)[C@H](CCCNC(=N)N)NC(=O)[C@H](Cc2c[nH]c3ccccc23)NC(=O)[C@H](Cc2ccc(O)cc2)NC1=O)C(C)C (Ac-LKRKWKRVFKLLK[S5]YWR[S5]LKKPVR-NH2; staple (Z) 14-18) | 5 µg/mL (≈ 1.53 µM) | 10.1 µg/mL (≈ 3.1 µM) | 2.4 µg/mL (≈ 0.736 µM) | 9.9 µg/mL | 4.9 µg/mL (≈ 1.5 µM) |
| CC(=O)N[C@@H](CC(C)C)C(=O)N[C@@H](CCCCN)C(=O)N[C@@H](CCCNC(=N)N)C(=O)N[C@H](C(=O)N[C@@H](CCCCN)C(=O)N[C@@H](CCCCN)C(=O)N[C@@H](CCCNC(=N)N)C(=O)N[C@H](C(=O)N[C@@H](Cc1ccccc1)C(=O)N[C@@H](CCCCN)C(=O)N[C@@H](CC(C)C)C(=O)N[C@@H](CC(C)C)C(=O)N[C@@H](CCCCN)C(=O)N[C@@]1(C)CCC/C=C\CCC[C@@](C)(C(=O)N[C@@H](CC(C)C)C(=O)N[C@@H](CCCCN)C(=O)N[C@@H](CCCCN)C(=O)N2CCC[C@H]2C(=O)N[C@H](C(=O)N[C@@H](CCCNC(=N)N)C(N)=O)C(C)C)NC(=O)[C@H](CCCNC(=N)N)NC(=O)[C@H](Cc2c[nH]c3ccccc23)NC(=O)[C@H](Cc2ccc(O)cc2)NC1=O)C(C)C)C(C)C (Ac-LKRVKKRVFKLLK[S5]YWR[S5]LKKPVR-NH2; staple (Z) 14-18) | 5 µg/mL (≈ 1.57 µM) | 10.1 µg/mL (≈ 3.18 µM) | 4.7 µg/mL (≈ 1.48 µM) | 15.3 µg/mL | 19 µg/mL (≈ 5.98 µM) |
| CC(=O)N[C@@H](CC(C)C)C(=O)N[C@@H](CCCCN)C(=O)N[C@@H](CCCNC(=N)N)C(=O)N[C@H](C(=O)N[C@@H](Cc1c[nH]c2ccccc12)C(=O)N[C@@H](CCCCN)C(=O)N[C@@H](CCCNC(=N)N)C(=O)N[C@@H](CCCCN)C(=O)N[C@@H](Cc1ccccc1)C(=O)N[C@@H](CCCCN)C(=O)N[C@@H](CC(C)C)C(=O)N[C@@H](CC(C)C)C(=O)N[C@@H](CCCCN)C(=O)N[C@@]1(C)CCC/C=C\CCC[C@@](C)(C(=O)N[C@@H](CC(C)C)C(=O)N[C@@H](CCCCN)C(=O)N[C@@H](CCCCN)C(=O)N2CCC[C@H]2C(=O)N[C@H](C(=O)N[C@@H](CCCNC(=N)N)C(N)=O)C(C)C)NC(=O)[C@H](CCCNC(=N)N)NC(=O)[C@H](Cc2c[nH]c3ccccc23)NC(=O)[C@H](Cc2ccc(O)cc2)NC1=O)C(C)C (Ac-LKRVWKRKFKLLK[S5]YWR[S5]LKKPVR-NH2; staple (Z) 14-18) | 5 µg/mL (≈ 1.53 µM) | 10.1 µg/mL (≈ 3.1 µM) | 2.4 µg/mL (≈ 0.736 µM) | 32.3 µg/mL | 10.1 µg/mL (≈ 3.1 µM) |
| CC(=O)N[C@@H](CC(C)C)C(=O)N[C@@H](CCCCN)C(=O)N[C@@H](CCCNC(=N)N)C(=O)N[C@H](C(=O)N[C@@H](Cc1c[nH]c2ccccc12)C(=O)N[C@@H](CCCCN)C(=O)N[C@@H](CCCNC(=N)N)C(=O)N[C@H](C(=O)N[C@@H](Cc1ccccc1)C(=O)N[C@@H](CCCCN)C(=O)N[C@@H](CCCCN)C(=O)N[C@@H](CC(C)C)C(=O)N[C@@H](CCCCN)C(=O)N[C@@]1(C)CCC/C=C\CCC[C@@](C)(C(=O)N[C@@H](CC(C)C)C(=O)N[C@@H](CCCCN)C(=O)N[C@@H](CCCCN)C(=O)N2CCC[C@H]2C(=O)N[C@H](C(=O)N[C@@H](CCCNC(=N)N)C(N)=O)C(C)C)NC(=O)[C@H](CCCNC(=N)N)NC(=O)[C@H](Cc2c[nH]c3ccccc23)NC(=O)[C@H](Cc2ccc(O)cc2)NC1=O)C(C)C)C(C)C (Ac-LKRVWKRVFKKLK[S5]YWR[S5]LKKPVR-NH2; staple (Z) 14-18) | 5 µg/mL (≈ 1.54 µM) | 38 µg/mL (≈ 11.7 µM) | 4.7 µg/mL (≈ 1.45 µM) | 35.2 µg/mL | 10.1 µg/mL (≈ 3.11 µM) |
| CC(=O)N[C@@H](CC(C)C)C(=O)N[C@@H](CCCCN)C(=O)N[C@@H](CCCNC(=N)N)C(=O)N[C@H](C(=O)N[C@@H](Cc1c[nH]c2ccccc12)C(=O)N[C@@H](CCCCN)C(=O)N[C@@H](CCCNC(=N)N)C(=O)N[C@H](C(=O)N[C@@H](Cc1ccccc1)C(=O)N[C@@H](CCCCN)C(=O)N[C@@H](CC(C)C)C(=O)N[C@@H](CCCCN)C(=O)N[C@@H](CCCCN)C(=O)N[C@@]1(C)CCC/C=C\CCC[C@@](C)(C(=O)N[C@@H](CC(C)C)C(=O)N[C@@H](CCCCN)C(=O)N[C@@H](CCCCN)C(=O)N2CCC[C@H]2C(=O)N[C@H](C(=O)N[C@@H](CCCNC(=N)N)C(N)=O)C(C)C)NC(=O)[C@H](CCCNC(=N)N)NC(=O)[C@H](Cc2c[nH]c3ccccc23)NC(=O)[C@H](Cc2ccc(O)cc2)NC1=O)C(C)C)C(C)C (Ac-LKRVWKRVFKLKK[S5]YWR[S5]LKKPVR-NH2; staple (Z) 14-18) | 5 µg/mL (≈ 1.54 µM) | 38 µg/mL (≈ 11.7 µM) | 4.7 µg/mL (≈ 1.45 µM) | 70.1 µg/mL | 10.1 µg/mL (≈ 3.11 µM) |
| CC(=O)N[C@@H](CC(C)C)C(=O)N[C@@H](CCCCN)C(=O)N[C@@H](CCCNC(=N)N)C(=O)N[C@H](C(=O)N[C@@H](Cc1c[nH]c2ccccc12)C(=O)N[C@@H](CCCCN)C(=O)N[C@@H](CCCNC(=N)N)C(=O)N[C@H](C(=O)N[C@@H](Cc1ccccc1)C(=O)N[C@@H](CCCCN)C(=O)N[C@@H](CC(C)C)C(=O)N[C@@H](CC(C)C)C(=O)N[C@@H](CCCCN)C(=O)N[C@@H](CCCNC(=N)N)C(=O)N[C@@H](Cc1ccc(O)cc1)C(=O)N[C@@H](Cc1c[nH]c2ccccc12)C(=O)N[C@@H](CCCNC(=N)N)C(=O)N[C@@H](CCC(N)=O)C(=O)N[C@@H](CC(C)C)C(=O)N[C@@H](CCCCN)C(=O)N[C@@H](CCCCN)C(=O)N1CCC[C@H]1C(=O)N[C@H](C(=O)N[C@@H](CCCNC(=N)N[C@@H]1O[C@H](CO)[C@@H](O[C@@H]2O[C@H](CO)[C@H](O)[C@H](O)[C@H]2O)[C@H](O)[C@H]1O)C(N)=O)C(C)C)C(C)C)C(C)C (Ac-LKRVWKRVFKLLKRYWRQLKKPV[Arg(Nω-βLac)]-NH2) | 5 µg/mL (≈ 1.39 µM) | 38 µg/mL (≈ 10.6 µM) | 4.7 µg/mL (≈ 1.31 µM) | 39.7 µg/mL | 4.9 µg/mL (≈ 1.36 µM) |
| CC(=O)N[C@@H](CC(C)C)C(=O)N[C@@H](CCCCN)C(=O)N[C@@H](CCCNC(=N)N)C(=O)N[C@H](C(=O)N[C@@H](Cc1c[nH]c2ccccc12)C(=O)N[C@@H](CCCCN)C(=O)N[C@@H](CCCNC(=N)N)C(=O)N[C@H](C(=O)N[C@@H](Cc1ccccc1)C(=O)N[C@@H](CCCCN)C(=O)N[C@@H](CC(C)C)C(=O)N[C@@H](CC(C)C)C(=O)N[C@@H](CCCCN)C(=O)N[C@@H](CCCNC(=N)N)C(=O)N[C@@H](Cc1ccc(O)cc1)C(=O)N[C@@H](Cc1c[nH]c2ccccc12)C(=O)N[C@@H](CCCNC(=N)N)C(=O)N[C@@H](CCC(N)=O)C(=O)N[C@@H](CC(C)C)C(=O)N[C@@H](CCCCN)C(=O)N[C@@H](CCCCN)C(=O)N1CCC[C@H]1C(=O)N[C@H](C(=O)N[C@@H](CCCNC(=N)N[C@@H]1O[C@H](CO)[C@@H](O[C@H]2O[C@H](CO)[C@@H](O[C@H]3O[C@H](CO)[C@@H](O)[C@H](O)[C@H]3O)[C@H](O)[C@H]2O)[C@H](O)[C@H]1O)C(N)=O)C(C)C)C(C)C)C(C)C (Ac-LKRVWKRVFKLLKRYWRQLKKPV[X1]-NH2) | 2.6 µg/mL (≈ 0.693 µM) | 38 µg/mL (≈ 10.1 µM) | 4.7 µg/mL (≈ 1.25 µM) | 45.7 µg/mL | 4.9 µg/mL (≈ 1.31 µM) |
